Columns and labels:
[1] = test system: catalytic antibody mAb 4D5; conditions: 310K, cited from earlier work
[2] = test system: Diels-Alderase DA_20_10, variant of DA_20_00 (Loligo vulgaris diisopropylfluorophosphatase scaffold, SEQ ID NO:2) with A21T/A74I/S271A/A173C/Q149R/A272N, SEQ …; test: Kinetics of Diels-Alder reaction catalysed by optimized DA_20_10; assay type: biochemical; conditions: 298K
Procedure: (A) Dependence of reaction velocity on diene concentration for different fixed dienophile concentrations. The diene concentration was varied from 3.0 to 0.18 mM with a fixed concentration of 100 mM (⋄), 66 mM (Δ), 44 mM (⋄), 30 mM (◯), 20 mM (◯), or 13 mM (●) dienophile (B) Dependence of reaction velocity on dienophile concentration for different fixed diene concentrations. The dienophile was varied from 100 to 13.0 mM with a fixed concentration of 3 mM (♦), 2 mM (▴), 1.3 mM (∇), 0.9 mM (Δ), 0.6 mM (⋄), 0.4 mM (□), 0.26 mM (◯), or 0.18 mM (●) […]. Reactions were carried out with 20 μM protein in PBS at 298 K.
(§1) The Diels-Alder reactions were performed in PBS, at 25° C., with 4% DMSO. The DMSO came from the diene, for which the stock solution (100 mM) was made in DMSO and always diluted such that the final reaction would contain 4% DMSO. After incubation of the desired amount of diene and dienophile in the presence or absence of the protein, time points were taken of the reaction (5 μL) and quenched in a solution of 80:20 acetonitrile:water with 0.1% formic acid and 1 mM Benzoic Acid (95 μL). This reaction was incubated for 5 minutes and then the precipitated protein filtered using a Millipore multiscreen solvinert filter plate (Product Number: MSRLN0450). 20 μL of the filtered quench solution was then injected and analyzed using a liquid chromatography-tandem mass spectroscopy (LC-MSMS) assay.
To summarize the optimization rounds, residues contacting the transition state in DA—20—00 were mutated individually to sets of residues predicted to retain or improve transition state binding and bolster the two catalytic residues. […] Three of the mutations (FIG. 6C) likely improve the packing around the transition state (A741, A21 T) or catalytic glutamine (A173C). Two of the mutations likely improve the overall electrostatic complementarity with the bound substrates and transition state: Q149R hydrogen bonds to the carboxylate on the diene and S271A makes the dienophile environment more non polar.
The kinetics of the DA—20—10 catalyzed reaction was characterized by measuring the dependence of the reaction velocity on the concentration of both diene and dienophile. The effective molarity (kcat/kuncat) of DA—20—10 is 100 M, and the rate enhancement (kcat/(kuncat*KM_diene)) in the presence of saturating dienophile and limiting diene is 1.0×10^5. At high substrate concentrations DA—20—10 proceeds for more than 30 turnovers before the enzyme loses activity. At higher enzyme concentrations more than 80% of the diene substrate is converted to product.
(§2) The errors represent the calculated 95% confidence interval. The parameter a describes the cooperativity of binding between the two substrates: a value greater than one indicates negative cooperativity, whereas a value lower then one indicates positive cooperativity. α could not be determined for DA—20—00. Kinetic parameters for catalytic antibodies 7D4 and 4D5 were taken from (10, 17).

[3] = test system: catalytic antibody mAb 7D4; conditions: 310K, cited from earlier work
[4] = test system: Diels-Alderase DA_20_00, computational design on Loligo vulgaris diisopropylfluorophosphatase scaffold (PDB-ID 1E1A, SEQ ID NO:2), SEQ ID NO:4; test: Kinetics of Diels-Alder reaction catalysed by original design DA_20_00; assay type: biochemical; conditions: 298K, PBS, error = 95% confidence interval
Procedure: as §1
This active design (DA—20—00) was created from a 6-bladed beta barrel propeller scaffold (PDB-ID 1E1A; a diisopropylfluorophosphatase from Loligo vulgaris). […]
as §2, with “Kinetic parameters for catalytic antibodies 7D4 and 4D5 were taken from (10, 17).” left out

Structure (SMILES): C=C/C=C/NC(=O)OCc1ccc(C(=O)O)cc1 [diene, 4-carboxybenzyl trans-1,3-butadiene-1-carbamate]
- kcat ([1]; diene + dienophile reaction): 0.21 h⁻¹
- a (cooperativity of binding between the two substrates) ([1]; diene and dienophile): 1
- Km ([1]; read-out: KM-diene): 1.6 mM
- kcat ([2]; PBS, 20 μM protein, diene + dienophile reaction, error = 95% confidence interval): 2.44 ± 0.3 h⁻¹
- Km ([2]; PBS, 20 μM protein, error = 95% confidence interval, read-out: KM-diene): 980 ± 200 µM
- a (cooperativity of binding between the two substrates) ([2]; diene and dienophile, >1 indicates negative cooperativity): 1.7 ± 0.7
- effective molarity (kcat/kuncat) ([2]; diene + dienophile reaction): 100 M
- kcat ([3]; diene + dienophile reaction): 0.21 h⁻¹
- a (cooperativity of binding between the two substrates) ([3]; diene and dienophile): 1
- Km ([3]; read-out: KM-diene): 960 µM
- kcat ([4]; diene + dienophile reaction): 0.01 ± 0.002 h⁻¹
- Km ([4]; read-out: KM-diene): 3.53 ± 1.5 mM
